# Measured values: patent US20030153081A1, “Viral core protein-cationic lipid-nucleic acid-delivery complexes” (priority 1999, published 2003)
# Assays:
# plasmid DNA (pCMVβ) = experiment: gel retardation assay (DNA binding analysis)
# Procedure: One microgram of pCMVβ was incubated with 0 μg (lane 2), 5 μg (lane 3), 10 μg (lane 4), 15 μg (lane 5), 20 μg (lane 6), 25 μg (lane 7) and 30 μg (lane 8) of BSA for 10 minutes at room temperature in 1× HBS. Samples were then analyzed on a 1% agarose gel for altered mobility.
# When ratios of 0.5 (w/w) or greater were used, however, migration of both forms of pDNA was severely retarded.
# C). The Polyomavirus protein Vp1 was much less efficient at preventing pDNA migration. pCMVβ (1 μg) was incubated with 2 μg (lane 2), 4 μg (lane 3), 6 μg (lane 4), 8 μg (lane 5), 16 μg (lane 6), 32 μg (lane 7) and 0 μg (lane 8) Vp1. Only ratios of 6 or higher (protein: pDNA, w/w) caused significant retardation of supercoiled pDNA (lane 6, lower band). Also, not until a ratio of 32 (w/w) was used was there any effect on relaxed pDNA (lane 7, upper band). In all gels lane 1 corresponds to 1 Kb DNA marker (BRL).
# The purified peptides were reconstituted in sterile distilled H2O at 3 mg/mL. Peptide and pDNA were complexed in 20 μL HEPES buffered saline (137 mM NaCl, 5 mM KCl, 0.75 mM Na2HPO4, 19 mM HEPES, pH 7.4) for 20 minutes at room temperature. Peptide: pDNA complexes were subsequently analyzed by agarose gel electrophoresis (1%). Control incubations for general macromolecular pDNA interactions were performed with varying amounts of molecular biology grade purified bovine serum albumin (Sigma).
# Varying amounts of purified peptide were incubated at room temperature in HBS for approximately 10 minutes and then analyzed by agarose gel electrophoresis. Without the addition of peptide, supercoiled and relaxed circular plasmid DNA (pDNA) migrated in the expected manner (FIG. 1, lane 8).
# differentiated ND7 cells = experiment: X-gal histochemistry, transfection of differentiated ND7 cells; assay type: cell-based, rat/mouse
# Procedure: ND7 cells were plated in a 24 well culture plate at a density of 4×10^4 cells per well in normal growth media (+serum). Twenty-four hours later the media was replaced with differentiation media and the cells were grown for an additional 24 hrs. Three different differentiation medias were used; serum-free (−serum), normal growth media plus 1 mM cAMP (cAMP), or reduced serum (0.5%) plus 1 mM cAMP and 50 ng/ml nerve growth factor (NGF). The cells were then transfected with pCMVb complexed with either DC-Chol/DOPE alone or Mu1 plus DC-Chol/DOPE. Forty-eight hours later the cells were fixed and processed for X-Gal histochemistry and the percentage of positive cells determined.
# Differentiation of ND7 cells was carried out using three previously described methods ^28, 29. ND7 cells were seeded in NGM at a density of 4×10^4 cells per well in a 24 well culture dish (Nunc). Twenty four hours later the media was replaced with either: a) NGM supplemented with 1 mM adenosine 3′:5′-cyclic monophosphate (cAMP; Sigma), or b) serum-free differentiation media (50% Hams F12, 50% DMEM, 5 μg/mL Transterrin, 250 ng/mL Insulin, 0.3 μM sodium selenite), or c) low serum nerve growth factor (NGF) media (L-15 supplemented with 2 mM glutamine, 4 g/L glucose, 4 g/L sodium bicarbonate, 10 u/mL penicillin, […] streptomycin, 0.5% FCS, 1 mM cAMP, 50 ng/mL NGF (Alomone Labs)). Differentiated ND7 cells were grown in appropriate media for 24 hrs at 37° C., 5% CO2 prior to transfection.
# We also examined the ability of Mu1 to improved cationic liposome-mediated transfection in differentiated ND7s. The ND7 cell line is derived from a fusion of primary rat dorsal root ganglia (DRG) neurons and the mouse neuroblastoma N18Tg2 ^28. ND7 cells can be differentiated in a variety of manners including the withdrawal of serum, cAMP administration or exposure to reduced serum plus cAMP and nerve growth factor. Differentiation of ND7s leads to the expression of cellular properties associated with their parental nociceptive sensory neurons including a reduction in cell division and the onset of neurite outgrowth. ND7 cells were seeded in 24 well culture plates and 24 hours later differentiated. Fifteen to 20 hours following the onset of differentiation, they were transfected as above. Fifteen to 20 hours following transfection, cells were fixed and processed for X-gal histochemistry. Consistent with previous observations, transfection efficiencies varied greatly between the three differentiated groups. […] In all three conditions, however, inclusion of Mu1 polypeptide in the transfection complex improved the transduction of differentiated ND7 cells. […] The greatest improvement in efficiencies was seen, however, in the group differentiated by serum withdrawal. Here, increases of greater than 10 fold were observed.
# Swiss 3T3 cells = experiment: β-galactosidase assay, Mu1 vs protamine in confluent Swiss 3T3 cells; assay type: cell-based; conditions: liposome (B198:DOPE 3:2):peptide:DNA 12:0.6:1, final DNA concentration 5.0 μg/l, 1 or 2 h
# From the text: Protamine is a naturally occurring cationic peptide abundant in piscine sperm and is potent in neutralising and condensing DNA. The transfection activity of protamine was compared with that of Mu1 peptide. Mu1 peptide or protamine sulfate (Sigma, grade X from Salmon) was complexed with DNA (pCMVβ) and then cationic liposomes (B 198:DOPE in a ratio of 3:2 m/m) giving a liposome:peptide:DNA ratio of 12:0.6:1 (w/w/w).
# The transfection activities were examined in Swiss 3T3 cells. The cells were seeded at an approximate density of 2×10^4 per well in a 24-well culture plate in DMEM supplemented with 10% FCS and grown for 48 h to complete confluence in the presence of 5% CO2 at 37° C. Cells were washed by brief exposure to DMEM and then treated with solutions containing LMD or LD complexes, prediluted with DMEM (final DNA concentration 5.0 μg/l in all cases), for 1 or 2 h. Cells were then washed again and incubated for a further 48 h in DMEM supplemented with 10% FCS prior to harvesting. The level of β-galactosidase enzyme activity was determined with a standard assay kit (Promega).
substance,measurement,setting,value
H-MRRAHHRRRRASHRRMRGG-OH [Mu1],"ratio of protein to pDNA giving slight retardation of supercoiled pDNA, relaxed form not altered","plasmid DNA (pCMVβ); 1 μg pCMVβ, 1% agarose gel",0.25 w/w
same,ratio of protein to pDNA at or above which migration of both forms of pDNA was severely retarded,"plasmid DNA (pCMVβ); 1 μg pCMVβ, 1x HBS, 1% agarose gel",≥ 0.5 w/w
same,concentration retarding electrophoretic mobility of plasmid DNA relative to Vp1,plasmid DNA (pCMVβ); Mu1 vs Vp1,1/60
same,"concentration in solution, pDNA retardation","plasmid DNA (pCMVβ); gel retardation complexes, 20 μL",25 ng/mL
same,number of positive cells (FIG. 6),"differentiated ND7 cells; all three differentiation media, Mu1 plus DC-Chol/DOPE vs DC-Chol/DOPE alone",increased the number of positive cells
same,increased efficiency by inclusion of Mu1,differentiated ND7 cells; differentiated by cAMP alone,greater than 6 fold
same,increased efficiency by inclusion of Mu1,differentiated ND7 cells; differentiated by serum withdrawal,greater than 10 fold
same,increased efficiency by inclusion of Mu1,differentiated ND7 cells; low serum/cAMP/NGF,greater than 6 fold
same,transfection compared with complexes comprising protamine,Swiss 3T3 cells,better transfection
